Like-named read-outs stand apart in the source and are kept apart here.
Assays:
[1] = L929 cytotoxicity evaluation (resazurin); type: cell-based; conditions: mouse, 72 hrs incubation, read-out: Cytotox L-929 IC50
In short: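 Mouse L929 fibroblasts (1×10^4/mL seeding, attached overnight) were treated 72 h at 37 °C, 5% CO2 with serially diluted compounds in DMSO in D-MEM/10% FBS. Viability read by resazurin fluorescence after 3–4 h (ex 544/em 590 nm); IC50 from sigmoidal fits of single data points.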

[2] = test system: bloodstream-form trypanosome T. brucei brucei 427 strain; experiment: Trypanosoma brucei brucei high-throughput in vitro drug sensitivity assay (resazurin); type: cell-based; conditions: for IC50: Trypanosoma brucei; for Selectivity Index (L929 IC50 / T. b. brucei IC50): T. b. brucei vs L929
[3] = 72 hrs incubation, read-out: T.b. brucei IC50

Row | IC50 [2, 3] | Structure (SMILES) | IC50 at 72 h ([1]; L929 mouse fibroblast cells) | IC50 at 72 h [1] | IC50 ([2]; 72 h, read-out: T.b. brucei IC50 (ug/mL)) | Selectivity Index (L929 IC50 / T. b. brucei IC50) [2] | IC50 ([2]; 72 hrs incubation, read-out: T. b. brucei IC50)
1 | 0.788 µg/mL | CC1(C)OB(O)c2cc(NC(=O)c3c(Cl)cc(Cl)cc3Cl)ccc21 [compound 105, 2,4,6-Trichloro-N-(1-hydroxy-3,3-dimethyl-1,3-dihydro-benzo[c][1,2]oxaborol-6-yl)-benzamide] | > 10 mg/L |  |  |  | 
2 | > 5 µg/mL | COc1cc(C(=O)Nc2ccc3c(c2)B(O)OC3(C)C)cc(OC)c1OC [compound 106, N-(1-Hydroxy-3,3-dimethyl-1,3-dihydro-benzo[c][1,2]oxaborol-6-yl)-3,4,5-trimethoxy-benzamide] | > 10 mg/L |  |  |  | 
3 | 0.378 µg/mL | Cc1ccc(Cl)c(C(=O)Nc2ccc3c(c2)B(O)OC3(C)C)c1F [compound 108, 6-Chloro-2-fluoro-N-(1-hydroxy-3,3-dimethyl-1,3-dihydro-benzo[c][1,2]oxaborol-6-yl)-3-methyl-benzamide] | > 10 mg/L |  |  |  | 
4 | 0.379 µg/mL | CC1(C)OB(O)c2cc(NC(=O)c3c(C(F)(F)F)ccc(Cl)c3F)ccc21 [compound 109, 3-Chloro-2-fluoro-N-(1-hydroxy-3,3-dimethyl-1,3-dihydro-benzo[c][1,2]oxaborol-6-yl)-6-trifluoromethyl-benzamide] | > 10 mg/L |  |  |  | 
5 | > 5 µg/mL | CC1(C)OB(O)c2cc(NC(=O)c3c(F)c(F)c(F)c(F)c3F)ccc21 [compound 110, 2,3,4,5,6-Pentafluoro-N-(1-hydroxy-3,3-dimethyl-1,3-dihydro-benzo[c][1,2]oxaborol-6-yl)-benzamide] | > 10 mg/L |  |  |  | 
6 | 1.23 µg/mL | CC1(C)OB(O)c2cc(NC(=O)c3cccc4ccccc34)ccc21 [compound 111, Naphthalene-1-carboxylic acid (1-hydroxy-3,3-dimethyl-1,3-dihydro-benzo[c][1,2]oxaborol-6-yl)-amide] | > 10 mg/L |  |  |  | 
7 | > 5 µg/mL | CC1(C)OB(O)c2cc(NC(=O)c3cccc4cccnc34)ccc21 [compound 113, Quinoline-8-carboxylic acid (1-hydroxy-3,3-dimethyl-1,3-dihydro-benzo[c][1,2]oxaborol-6-yl)-amide] | > 10 mg/L |  |  |  | 
8 | > 5 µg/mL | CC1(C)OB(O)c2cc(NC(=O)c3cccnc3)ccc21 [compound 115, N-(1-Hydroxy-3,3-dimethyl-1,3-dihydro-benzo[c][1,2]oxaborol-6-yl)-nicotinamide] | > 10 mg/L |  |  |  | 
9 | > 5 µg/mL | CC1(C)OB(O)c2cc(NC(=O)c3ccncc3)ccc21 [compound 116, N-(1-Hydroxy-3,3-dimethyl-1,3-dihydro-benzo[c][1,2]oxaborol-6-yl)-isonicotinamide] | > 10 mg/L |  |  |  | 
10 | 1.55 µg/mL | CC1(C)OB(O)c2cc(NC(=O)c3ccc4ccccc4n3)ccc21 [compound 117, Quinoline-2-carboxylic acid (1-hydroxy-3,3-dimethyl-1,3-dihydro-benzo[c][1,2]oxaborol-6-yl)-amide] | > 10 mg/L |  |  |  | 
11 | 0.814 µg/mL | Cc1ccc(C(=O)Nc2ccc3c(c2)B(O)OC3(C)C)c(Cl)n1 [compound 118] | > 10 mg/L |  |  |  | 
12 | > 5 µg/mL | CC1(C)OB(O)c2cc(NC(=O)c3cnccn3)ccc21 [compound 119, Pyrazine-2-carboxylic acid (1-hydroxy-3,3-dimethyl-1,3-dihydro-benzo[c][1,2]oxaborol-6-yl)-amide] | > 10 mg/L |  |  |  | 
13 | > 5 µg/mL | CC1(C)OB(O)c2cc(NC(=O)c3ccoc3)ccc21 [compound 120, Furan-3-carboxylic acid (1-hydroxy-3,3-dimethyl-1,3-dihydro-benzo[c][1,2]oxaborol-6-yl)-amide] | > 10 mg/L |  |  |  | 
14 | 3.2 µg/mL | Cc1occc1C(=O)Nc1ccc2c(c1)B(O)OC2(C)C [compound 121, 2-Methyl-furan-3-carboxylic acid (1-hydroxy-3,3-dimethyl-1,3-dihydro-benzo[c][1,2]oxaborol-6-yl)-amide] | > 10 mg/L |  |  |  | 
15 | > 5 µg/mL | Cc1cc(C(=O)Nc2ccc3c(c2)B(O)OC3(C)C)c(C)o1 [compound 122, 2,5-Dimethyl-furan-3-carboxylic acid (1-hydroxy-3,3-dimethyl-1,3-dihydro-benzo[c][1,2]oxaborol-6-yl)-amide] | > 10 mg/L |  |  |  | 
16 | > 5 µg/mL | CC1(C)OB(O)c2cc(NC(=O)c3cc[nH]n3)ccc21 [compound 123, 1H-Pyrazole-3-carboxylic acid (1-hydroxy-3,3-dimethyl-1,3-dihydro-benzo[c][1,2]oxaborol-6-yl)-amide] | > 10 mg/L |  |  |  | 
17 | 2.7 µg/mL | CC1(C)OB(O)c2cc(NC(=O)c3cccs3)ccc21 [compound 124, Thiophene-2-carboxylic acid (1-hydroxy-3,3-dimethyl-1,3-dihydro-benzo[c][1,2]oxaborol-6-yl)-amide] | > 10 mg/L |  |  |  | 
18 | > 5 µg/mL | CC1(C)OB(O)c2cc(NC(=O)Cc3cccs3)ccc21 [compound 125, N-(1-Hydroxy-3,3-dimethyl-1,3-dihydro-benzo[c][1,2]oxaborol-6-yl)-2-thiophen-2-yl-acetamide] | > 10 mg/L |  |  |  | 
19 | > 5 µg/mL | CC1(C)OB(O)c2cc(NC(=O)C3CC3)ccc21 [compound 126, Cyclopropanecarboxylic acid (1-hydroxy-3,3-dimethyl-1,3-dihydro-benzo[c][1,2]oxaborol-6-yl)-amide] | > 10 mg/L |  |  |  | 
20 | 2.85 µg/mL | CC1(C)OB(O)c2cc(NC(=O)C3CCC3)ccc21 [compound 127, Cyclobutanecarboxylic acid (1-hydroxy-3,3-dimethyl-1,3-dihydro-benzo[c][1,2]oxaborol-6-yl)-amide] | > 10 mg/L |  |  |  | 
21 | > 5 µg/mL | CC1(C)OB(O)c2cc(NC(=O)C3CCCC3)ccc21 [compound 128, Cyclopentanecarboxylic acid (1-hydroxy-3,3-dimethyl-1,3-dihydro-benzo[c][1,2]oxaborol-6-yl)-amide] | > 10 mg/L |  |  |  | 
22 | > 5 µg/mL | CC1(C)OB(O)c2cc(NC(=O)C3CCCCC3)ccc21 [compound 129, Cyclohexanecarboxylic acid (1-hydroxy-3,3-dimethyl-1,3-dihydro-benzo[c][1,2]oxaborol-6-yl)-amide] | > 10 mg/L |  |  |  | 
23 | > 5 µg/mL | CC(=O)Nc1ccc2c(c1)B(O)OC2(C)C [compound 130, N-(1-Hydroxy-3,3-dimethyl-1,3-dihydro-benzo[c][1,2]oxaborol-6-yl)-acetamide] | > 10 mg/L |  |  |  | 
24 |  | CC1(C)OB(O)c2cc(NC(=O)C(F)(F)C(F)(F)C(F)(F)F)ccc21 [compound 131, 2,2,3,3,4,4,4-Heptafluoro-N-(1-hydroxy-3,3-dimethyl-1,3-dihydro-benzo[c][1,2]oxaborol-6-yl)-butyramide] |  | > 10 mg/L | > 5 µg/mL |  | 
25 | 3.81 µg/mL | CCC(C)(C)C(=O)Nc1ccc2c(c1)B(O)OC2(C)C [compound 132, N-(1-Hydroxy-3,3-dimethyl-1,3-dihydro-benzo[c][1,2]oxaborol-6-yl)-2,2-dimethyl-butyramide] | > 10 mg/L |  |  |  | 
26 | 0.191 µg/mL | O=C(Nc1ccc2c(c1)B(O)OC21CC1)c1ccc(F)cc1C(F)(F)F [compound 133] | > 10 mg/L |  |  | 100 | 

Row | Structure (SMILES) | IC50 [2, 3] | IC50 at 72 h ([1]; L929 mouse fibroblast cells) | IC50 at 72 h [1] | IC50 ([2]; 72 h, read-out: T.b. brucei IC50 (ug/mL)) | Selectivity Index (L929 IC50 / T. b. brucei IC50) [2] | IC50 ([2]; 72 hrs incubation, read-out: T. b. brucei IC50)
27 | O=C(Nc1ccc2c(c1)B(O)OC21CCCC1)c1ccccc1Cl [compound 137, 2-Chloro-N-(1-hydroxy-3,3-spirocyclopentyl′-1,3-dihydro-benzo[c][1,2]oxaborol-6-yl)-benzamide] | 3.62 µg/mL | > 10 mg/L |  |  | >3 | 10.6 µM
